Earlier results as cited in PubChem BioAssay AID1259409 (Chemical Carcinogenesis Research Information System (CCRIS), 2018).

Test system: rodent chemically induced tumor inhibition, incidence and multiplicity
Experiment: CCRIS tumor inhibitor studies
Settings: Carcinogen: 7,12-DIMETHYLBENZ[A]ANTHRACENE; 57-97-6; Dose [Inhibitor]: 0; 12 NMOL PER REPEATED APPLICATION FOR 20 WK (STUDY DURATION: 20 WK); Route [Inhibitor]: DERMAL; Species: MOUSE; Strain/Sex: CD-1/FEMALE; Target Tissue: Type of Lesion: SKIN: TUMOR; Dose [Carcinogen]: 100 UG ONCE; Promoter: OKADAIC ACID; 78111-17-8

Q: Which “tumour outcome (control, treated, inhibition, significance)” value does the source give for `CC(C)[C@H]1C=C[C@H](O)CC1` here?
A: 87%, 53%, 39%, not calculated
